“And” between values parts separate entries of the source, which are not always exact repeats. Identical values can stand only once. Inconclusive results and toxic doses are left out. Rule as the data show it: active = T/C of 150% or more; inactive = T/C below 125%.
System: L1210 leukemia ip in BDF1 mice, survival T/C
Experiment: NCI In Vivo Anticancer Drug Screen. Data for tumor model L1210 Leukemia (intraperitoneal) in B6D2F1 (BDF1) mice
Settings: endpoint: mean survival time, higher = longer survival
Outline: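 Value reflects the ratio of survival in compound-treated mice to survival in vehicle-treated controls, with both groups carrying the same transplanted tumor.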

[1] = dose: 100.0 mg/kg/injection, schedule: Q01DX009 (ip), vehicle: saline with Tween-80
[2] = dose: 100.0 mg/kg/injection, schedule: Q04DX003 (ip), vehicle: saline with Tween-80
[3] = dose: 200.0 mg/kg/injection, schedule: Q01DX009 (ip), vehicle: saline with Tween-80
[4] = dose: 200.0 mg/kg/injection, schedule: Q04DX003 (ip), vehicle: saline with Tween-80
[5] = dose: 400.0 mg/kg/injection, schedule: Q04DX003 (ip), vehicle: saline with Tween-80
[6] = dose: 50.0 mg/kg/injection, schedule: Q01DX009 (ip), vehicle: saline with Tween-80
[7] = dose: 100.0 mg/kg/injection, schedule: Q01DX009 (ip), vehicle: Klucel (hydroxypropylcellulose) (HPC)
[8] = dose: 200.0 mg/kg/injection, schedule: Q01DX009 (ip), vehicle: Klucel (hydroxypropylcellulose) (HPC)
[9] = dose: 400.0 mg/kg/injection, schedule: Q01DX009 (ip), vehicle: Klucel (hydroxypropylcellulose) (HPC)
[10] = dose: 100.0 mg/kg/injection, schedule: Q04DX002 (ip), vehicle: Klucel (hydroxypropylcellulose) (HPC)
[11] = dose: 200.0 mg/kg/injection, schedule: Q04DX002 (ip), vehicle: Klucel (hydroxypropylcellulose) (HPC)
[12] = dose: 400.0 mg/kg/injection, schedule: Q04DX002 (ip), vehicle: Klucel (hydroxypropylcellulose) (HPC)
[13] = dose: 50.0 mg/kg/injection, schedule: Q01DX001 (ip), vehicle: carboxymethylcellulose (CMC)
[14] = dose: 100.0 mg/kg/injection, schedule: Q01DX001 (ip), vehicle: carboxymethylcellulose (CMC)
[15] = dose: 200.0 mg/kg/injection, schedule: Q01DX001 (ip), vehicle: carboxymethylcellulose (CMC)
[16] = dose: 400.0 mg/kg/injection, schedule: Q01DX001 (ip), vehicle: carboxymethylcellulose (CMC)
[17] = dose: 100.0 mg/kg/injection, schedule: Q01DX001 (ip), vehicle: saline
[18] = dose: 100.0 mg/kg/injection, schedule: Q01DX009 (ip), vehicle: saline
[19] = dose: 200.0 mg/kg/injection, schedule: Q01DX001 (ip), vehicle: saline
[20] = dose: 200.0 mg/kg/injection, schedule: Q01DX009 (ip), vehicle: saline
[21] = dose: 400.0 mg/kg/injection, schedule: Q01DX009 (ip), vehicle: saline

Measured: T/C

Cc1ccc(C(C)(O)c2cnc(C)n2Cc2ccccc2)cc1 (configuration not stated)
inactive: dose: 100.0 mg/kg/injection, schedule: Q01DX001 (ip), vehicle: saline with Tween-80 97 % of control | [1] 95 % of control and 113 % of control | dose: 100.0 mg/kg/injection, schedule: Q04DX002 (ip), vehicle: saline with Tween-80 110 % of control and 92 % of control | [2] 101 % of control | dose: 200.0 mg/kg/injection, schedule: Q01DX001 (ip), vehicle: saline with Tween-80 97 % of control | [3] 98 % of control and 102 % of control | dose: 200.0 mg/kg/injection, schedule: Q04DX002 (ip), vehicle: saline with Tween-80 95 % of control and 97 % of control | [4] 103 % of control | dose: 400.0 mg/kg/injection, schedule: Q01DX001 (ip), vehicle: saline with Tween-80 91 % of control | dose: 400.0 mg/kg/injection, schedule: Q01DX009 (ip), vehicle: saline with Tween-80 91 % of control and 92 % of control | dose: 400.0 mg/kg/injection, schedule: Q04DX002 (ip), vehicle: saline with Tween-80 103 % of control and 88 % of control | [5] 98 % of control

OCCN1CCC2(CC1)SSC1(CCN(CCO)CC1)S2
inactive: [6] 104 % of control | [1] 98 % of control | [2] 100 % of control | [3] 93 % of control | [4] 104 % of control

CCOC(=O)C(Cc1c[nH]c2ccccc12)(NC=O)C(=O)OCC
inactive: [7] 91 % of control | [8] 100 % of control | [9] 91 % of control

CC[N+]1(CN2CCCCC2)CCCCC1
inactive: dose: 12.5 mg/kg/injection, schedule: Q04DX003 (ip), vehicle: Klucel (hydroxypropylcellulose) (HPC) 102 % of control | dose: 25.0 mg/kg/injection, schedule: Q04DX003 (ip), vehicle: Klucel (hydroxypropylcellulose) (HPC) 96 % of control | dose: 50.0 mg/kg/injection, schedule: Q04DX003 (ip), vehicle: Klucel (hydroxypropylcellulose) (HPC) 90 % of control

COC(=O)c1ccccc1-n1cnc2ccccc2c1=O
inactive: [10] 101 % of control | [11] 101 % of control | [12] 93 % of control

COc1ccc(C(C)c2ccc(OC)cc2)cc1
inactive: [2] 93 % of control | [4] 95 % of control | [5] 91 % of control

N#CSCc1c(Cl)c(Cl)c(CSC#N)c(Cl)c1Cl
inactive: dose: 75.0 mg/kg/injection, schedule: Q01DX009 (ip), vehicle: saline 96 % of control | dose: 150.0 mg/kg/injection, schedule: Q01DX009 (ip), vehicle: saline 94 % of control | dose: 300.0 mg/kg/injection, schedule: Q01DX009 (ip), vehicle: saline 93 % of control

O=C(COc1ccc(Cl)cc1C(=O)O)NCc1ccc([N+](=O)[O-])cc1
inactive: dose: 75.0 mg/kg/injection, schedule: Q01DX009 (ip), vehicle: Klucel (hydroxypropylcellulose) (HPC) 106 % of control | dose: 150.0 mg/kg/injection, schedule: Q01DX009 (ip), vehicle: Klucel (hydroxypropylcellulose) (HPC) 104 % of control | dose: 300.0 mg/kg/injection, schedule: Q01DX009 (ip), vehicle: Klucel (hydroxypropylcellulose) (HPC) 101 % of control

CC(=O)c1ccc(CC23CC4CC(CC(C4)C2)C3)cc1
inactive: [7] 99 % of control | [8] 90 % of control | [9] 94 % of control

NC(=O)C1(Nc2ccc(-c3ccc(Cl)cc3)cc2)CCCC1
inactive: [13] 96 % of control | [14] 93 % of control | [15] 90 % of control | [16] 87 % of control

COC(=O)N1C(C)=CC=CC=C1C
inactive: dose: 12.5 mg/kg/injection, schedule: Q04DX002 (ip), vehicle: Klucel (hydroxypropylcellulose) (HPC) 94 % of control | dose: 25.0 mg/kg/injection, schedule: Q04DX002 (ip), vehicle: Klucel (hydroxypropylcellulose) (HPC) 88 % of control | dose: 50.0 mg/kg/injection, schedule: Q04DX002 (ip), vehicle: Klucel (hydroxypropylcellulose) (HPC) 98 % of control | [10] 100 % of control

CC[n+]1cccc2ccccc21
inactive: [17] 97 % of control

CN(CCS)Cc1ccccc1
inactive: dose: 25.0 mg/kg/injection, schedule: Q01DX009 (ip), vehicle: saline with Tween-80 97 % of control | dose: 25.0 mg/kg/injection, schedule: Q04DX003 (ip), vehicle: saline with Tween-80 95 % of control | [6] 99 % of control | dose: 50.0 mg/kg/injection, schedule: Q04DX003 (ip), vehicle: saline with Tween-80 106 % of control | [1] 103 % of control | [2] 97 % of control and 102 % of control

CCCCN=C(NCCCC)OC1CCCCC1
inactive: dose: 11.1 mg/kg/injection, schedule: Q01DX Z (ip), vehicle: saline 98 % of control | dose: 16.6 mg/kg/injection, schedule: Q01DX Z (ip), vehicle: saline 100 % of control | dose: 25.0 mg/kg/injection, schedule: Q01DX Z (ip), vehicle: saline 102 % of control

CC(C)C1(O)C2C3CCC(C3)C2C(=O)C2C3CCC(C3)C21 (configuration not stated)
inactive: [6] 96 % of control | [1] 93 % of control | [3] 93 % of control

COc1ccc(OC)c(NC(=O)c2cccc(N)c2)c1
inactive: [14] 111 % of control | [15] 105 % of control | [16] 103 % of control

Cc1ccnc(NC(=O)Nc2ccc(C)cc2[N+](=O)[O-])c1
inactive: [10] 99 % of control | [11] 105 % of control | [12] 115 % of control

COc1cc(C=Nc2ccc(Cl)cc2)ccc1N(CCCl)CCCl
inactive: dose: 21.0 mg/kg/injection, schedule: Q01DX015 (ip), vehicle: carboxymethylcellulose (CMC) 110 % of control | dose: 36.0 mg/kg/injection, schedule: Q01DX015 (ip), vehicle: carboxymethylcellulose (CMC) 95 % of control | [13] 120 % of control | [14] 108 % of control | dose: 133.0 mg/kg/injection, schedule: Q01DX001 (ip), vehicle: carboxymethylcellulose (CMC) 107 % of control | [15] 117 % of control

O=C1NC2(c3ccccc3)NC(=O)NC2(c2ccccc2)N1 (configuration not stated)
inactive: [17] 97 % of control | [18] 91 % of control | dose: 100.0 mg/kg/injection, schedule: Q04DX003 (ip), vehicle: saline 102 % of control | [19] 92 % of control | [20] 97 % of control | dose: 200.0 mg/kg/injection, schedule: Q04DX003 (ip), vehicle: saline 95 % of control | dose: 400.0 mg/kg/injection, schedule: Q01DX001 (ip), vehicle: saline 100 % of control | [21] 102 % of control | dose: 400.0 mg/kg/injection, schedule: Q04DX003 (ip), vehicle: saline 102 % of control

CCCCCCCC/C=C\CCCCCCCC(=O)O.[Cu+2]
inactive: [17] 105 % of control | [19] 96 % of control

CC1=CC(C)(C)NC(=S)N1c1ccc(C)cc1
inactive: dose: 100.0 mg/kg/injection, schedule: Q04DX003 (ip), vehicle: Klucel (hydroxypropylcellulose) (HPC) 104 % of control | dose: 200.0 mg/kg/injection, schedule: Q04DX003 (ip), vehicle: Klucel (hydroxypropylcellulose) (HPC) 93 % of control | dose: 400.0 mg/kg/injection, schedule: Q04DX003 (ip), vehicle: Klucel (hydroxypropylcellulose) (HPC) 91 % of control

Nc1nc(N)c(-c2ccc(Cl)c(Cl)c2)c(COc2cccc(CNC(=O)c3cccc(S(=O)(=O)F)c3)c2)n1
inactive: dose: 25.0 mg/kg/injection, schedule: Q01DX009 (ip), vehicle: saline 110 % of control | dose: 50.0 mg/kg/injection, schedule: Q01DX009 (ip), vehicle: saline 102 % of control | [18] 98 % of control | [20] 102 % of control | [21] 105 % of control

CCOC(=O)C(Cc1ccccc1)C(=O)OCC
inactive: [2] 96 % of control | [4] 97 % of control | [5] 96 % of control

CCCC(=O)Nc1ccc(N=Nc2ccccc2)cc1
inactive: dose: 25.0 mg/kg/injection, schedule: Q01DX009 (ip), vehicle: Klucel (hydroxypropylcellulose) (HPC) 100 % of control | dose: 50.0 mg/kg/injection, schedule: Q01DX009 (ip), vehicle: Klucel (hydroxypropylcellulose) (HPC) 92 % of control | [7] 94 % of control and 96 % of control | [8] 95 % of control

— PubChem BioAssay AID248 (DTP/NCI, 2004)
